Laboratory results published in ChEMBL document CHEMBL5370619, “Targeting the Tyrosine Kinase 2 (TYK2) Pseudokinase Domain: Discovery of the Selective TYK2 Inhibitor ABBV-712” (J Med Chem, 2023).
Values after ≈ are worked out from the molar mass of the structure shown.

Experiments:
[1] = molecular target: T1, Non-receptor tyrosine-protein kinase TYK2 (Homo sapiens, UniProt P29597); experiment: Inhibition of recombinant human N-terminal His-tagged TYK2 JH2 domain (577 to 870 residues) expressed in Sf9 cells using N-(2-(2-(2-((3-(5-acetamido-3-(3-(N,N-dimethylsulfamoyl)phenyl)-1H-pyrrolo[2,3-c]pyridin-1-yl)propyl)amino)-2-oxoethoxy)ethoxy)ethyl)-2',7'-difluoro-3',6'-dihydroxy-3-oxo-3H-spiro[isobenzofuran-1,9'-xanthene]-5-carboxamide trifluoroacetate as substrate incubated for 60 mins by TR-FRET assay
T1 sequence (P29597 whole entry, the tested form may be a part): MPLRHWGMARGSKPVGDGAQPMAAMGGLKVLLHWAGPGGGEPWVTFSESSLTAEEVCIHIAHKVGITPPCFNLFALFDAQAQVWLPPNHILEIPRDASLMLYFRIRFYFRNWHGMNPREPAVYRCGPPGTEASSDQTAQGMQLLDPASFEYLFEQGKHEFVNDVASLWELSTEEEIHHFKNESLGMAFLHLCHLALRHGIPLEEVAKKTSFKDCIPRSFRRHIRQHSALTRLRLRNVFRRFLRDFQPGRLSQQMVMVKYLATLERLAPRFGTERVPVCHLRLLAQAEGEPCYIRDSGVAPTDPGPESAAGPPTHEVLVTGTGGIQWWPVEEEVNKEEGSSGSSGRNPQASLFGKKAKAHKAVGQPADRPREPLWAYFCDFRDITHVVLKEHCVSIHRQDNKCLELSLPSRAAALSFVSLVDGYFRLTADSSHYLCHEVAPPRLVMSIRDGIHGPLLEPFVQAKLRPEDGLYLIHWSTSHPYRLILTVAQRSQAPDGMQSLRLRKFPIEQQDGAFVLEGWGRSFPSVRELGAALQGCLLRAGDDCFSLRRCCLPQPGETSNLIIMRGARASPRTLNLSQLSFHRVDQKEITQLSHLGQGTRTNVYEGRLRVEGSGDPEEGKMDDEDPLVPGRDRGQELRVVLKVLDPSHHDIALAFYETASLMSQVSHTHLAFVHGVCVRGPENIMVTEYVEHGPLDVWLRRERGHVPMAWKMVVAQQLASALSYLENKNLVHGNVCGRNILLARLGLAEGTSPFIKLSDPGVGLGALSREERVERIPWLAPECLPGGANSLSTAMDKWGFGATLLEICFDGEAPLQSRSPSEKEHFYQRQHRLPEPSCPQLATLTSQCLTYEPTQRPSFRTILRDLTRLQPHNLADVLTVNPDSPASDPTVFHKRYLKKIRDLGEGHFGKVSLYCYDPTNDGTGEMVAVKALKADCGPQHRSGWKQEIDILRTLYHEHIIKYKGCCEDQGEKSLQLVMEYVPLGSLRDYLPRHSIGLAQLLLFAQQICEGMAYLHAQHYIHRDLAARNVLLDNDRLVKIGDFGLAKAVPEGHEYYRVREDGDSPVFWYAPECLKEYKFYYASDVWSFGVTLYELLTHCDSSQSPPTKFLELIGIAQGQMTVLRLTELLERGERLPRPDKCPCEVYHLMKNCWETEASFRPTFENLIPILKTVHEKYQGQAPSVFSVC

[2] = molecular target: T1, Non-receptor tyrosine-protein kinase TYK2; experiment: Inhibition of TYK2 in human T-blast cells assessed as IL-12 induced STAT4 phosphorylation at Tyr694 residue preincubated for 30 mins followed by IL-12 stimulation and measured after 20 mins by AlphaScreen assay; assay type: cell-based, T-blast cell
[3] = molecular target: T2, Tyrosine-protein kinase JAK1 (Homo sapiens, UniProt P23458); experiment: Inhibition of JAK1 in human TF-1 cells assessed as reduction in IL-6 induced STAT3 phosphorylation at Tyr705 residue preincubated for 30 mins followed by IL-6 stimulation and measured after 30 mins by AlphaScreen assay; assay type: cell-based
T2 sequence (P23458 whole entry): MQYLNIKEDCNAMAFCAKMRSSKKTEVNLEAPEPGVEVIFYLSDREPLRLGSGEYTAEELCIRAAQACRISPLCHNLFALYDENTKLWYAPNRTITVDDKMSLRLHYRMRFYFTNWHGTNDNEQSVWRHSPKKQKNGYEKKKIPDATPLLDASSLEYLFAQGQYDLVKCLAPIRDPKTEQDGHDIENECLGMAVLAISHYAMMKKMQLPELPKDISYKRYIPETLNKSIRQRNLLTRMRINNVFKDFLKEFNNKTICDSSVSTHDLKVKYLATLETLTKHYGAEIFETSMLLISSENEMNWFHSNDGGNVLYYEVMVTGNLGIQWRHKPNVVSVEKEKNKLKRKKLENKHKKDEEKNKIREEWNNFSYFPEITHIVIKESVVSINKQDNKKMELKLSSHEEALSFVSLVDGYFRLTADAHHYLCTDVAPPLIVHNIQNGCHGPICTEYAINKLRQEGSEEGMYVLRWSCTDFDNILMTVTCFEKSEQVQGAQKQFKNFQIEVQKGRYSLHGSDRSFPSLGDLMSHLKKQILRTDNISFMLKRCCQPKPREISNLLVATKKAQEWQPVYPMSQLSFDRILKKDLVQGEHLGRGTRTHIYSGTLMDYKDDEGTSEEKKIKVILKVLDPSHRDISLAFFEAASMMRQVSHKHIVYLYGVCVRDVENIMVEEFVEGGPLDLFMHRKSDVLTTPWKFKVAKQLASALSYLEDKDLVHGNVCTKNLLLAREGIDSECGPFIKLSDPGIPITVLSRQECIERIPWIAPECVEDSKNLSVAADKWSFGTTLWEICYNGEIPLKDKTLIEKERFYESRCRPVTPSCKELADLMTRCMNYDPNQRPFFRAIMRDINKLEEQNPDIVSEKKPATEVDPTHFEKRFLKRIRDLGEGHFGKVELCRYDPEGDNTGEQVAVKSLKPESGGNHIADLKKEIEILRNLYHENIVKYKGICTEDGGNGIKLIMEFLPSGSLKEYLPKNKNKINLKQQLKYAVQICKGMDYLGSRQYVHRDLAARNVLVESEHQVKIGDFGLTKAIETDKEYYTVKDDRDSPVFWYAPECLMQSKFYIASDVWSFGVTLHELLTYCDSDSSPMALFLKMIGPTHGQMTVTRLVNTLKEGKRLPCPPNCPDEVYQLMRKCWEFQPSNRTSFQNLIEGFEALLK

[4] = Metabolic stability in human hepatocytes assessed as intrinsic clearance for unbound fraction of drug; assay type: ADME, cell-based, Hepatocyte
[5] = Thermodynamic solubility in PBS at pH 7.4; assay type: physicochemical; conditions: read-out: Therm_solubility
[6] = molecular target: T1, Non-receptor tyrosine-protein kinase TYK2; experiment: Inhibition of TYK2 JH1 domain (unknown origin) by TR-FRET assay
[7] = molecular target: T2, Tyrosine-protein kinase JAK1; experiment: Inhibition of JAK1 JH1 domain (unknown origin) by TR-FRET assay
[8] = Selectivity ratio of IC50 for inhibition of TYK2 JH1 domain (unknown origin) to IC50 for inhibition of recombinant human N-terminal His-tagged TYK2 JH2 domain (577 to 870 residues) expressed in Sf9 cells
[9] = Selectivity ratio of IC50 for inhibition of JAK1 JH1 domain (unknown origin) to IC50 for inhibition of recombinant human N-terminal His-tagged TYK2 JH2 domain (577 to 870 residues) expressed in Sf9 cells
[10] = molecular target: Tyrosine-protein kinase JAK2 (Homo sapiens, UniProt O60674); experiment: Inhibition of JAK2 in human UT7 cells assessed as reduction in erythropoietin induced STAT5 phosphorylation preincubated for 30 mins followed by erythropoietin stimulation and measured after 20 mins by AlphaScreen assay; assay type: cell-based
Sequence of Tyrosine-protein kinase JAK2 (O60674 whole entry): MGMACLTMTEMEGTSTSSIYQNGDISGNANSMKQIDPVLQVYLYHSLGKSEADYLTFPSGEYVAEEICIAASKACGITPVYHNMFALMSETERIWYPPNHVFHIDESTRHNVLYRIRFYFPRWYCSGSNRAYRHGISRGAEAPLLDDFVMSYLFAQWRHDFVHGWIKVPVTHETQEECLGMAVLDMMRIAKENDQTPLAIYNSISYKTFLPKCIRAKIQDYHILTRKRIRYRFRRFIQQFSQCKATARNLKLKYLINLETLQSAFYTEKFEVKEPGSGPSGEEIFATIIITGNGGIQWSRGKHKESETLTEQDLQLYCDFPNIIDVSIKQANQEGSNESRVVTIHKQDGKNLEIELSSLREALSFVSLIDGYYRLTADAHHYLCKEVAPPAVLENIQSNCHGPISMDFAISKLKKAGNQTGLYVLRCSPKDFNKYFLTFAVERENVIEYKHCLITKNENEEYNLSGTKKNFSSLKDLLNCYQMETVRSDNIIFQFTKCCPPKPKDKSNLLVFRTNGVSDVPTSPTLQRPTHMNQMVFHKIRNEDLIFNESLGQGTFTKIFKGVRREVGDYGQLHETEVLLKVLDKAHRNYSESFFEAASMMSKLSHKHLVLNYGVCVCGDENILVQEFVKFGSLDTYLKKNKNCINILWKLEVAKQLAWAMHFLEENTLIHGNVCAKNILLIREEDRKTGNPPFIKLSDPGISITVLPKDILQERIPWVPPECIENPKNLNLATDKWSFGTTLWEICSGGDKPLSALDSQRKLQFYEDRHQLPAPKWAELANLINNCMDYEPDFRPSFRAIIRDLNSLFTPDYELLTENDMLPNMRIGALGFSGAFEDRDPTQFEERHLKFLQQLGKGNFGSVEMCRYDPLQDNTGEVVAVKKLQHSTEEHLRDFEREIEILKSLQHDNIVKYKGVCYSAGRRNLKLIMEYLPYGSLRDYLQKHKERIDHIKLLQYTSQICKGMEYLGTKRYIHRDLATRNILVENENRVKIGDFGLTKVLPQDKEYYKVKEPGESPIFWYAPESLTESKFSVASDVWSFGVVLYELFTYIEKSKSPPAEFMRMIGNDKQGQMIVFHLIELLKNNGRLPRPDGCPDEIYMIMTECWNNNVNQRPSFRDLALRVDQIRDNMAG

[11] = molecular target: T3, Tyrosine-protein kinase JAK3 (Homo sapiens, UniProt P52333); experiment: Inhibition of JAK3 in human T-blast cells assessed as reduction in IL-2 induced STAT5 phosphorylation preincubated for 30 mins followed by IL-2 stimulation and measured after 20 mins by AlphaScreen assay; assay type: cell-based, T-blast cell
T3 sequence (P52333 whole entry): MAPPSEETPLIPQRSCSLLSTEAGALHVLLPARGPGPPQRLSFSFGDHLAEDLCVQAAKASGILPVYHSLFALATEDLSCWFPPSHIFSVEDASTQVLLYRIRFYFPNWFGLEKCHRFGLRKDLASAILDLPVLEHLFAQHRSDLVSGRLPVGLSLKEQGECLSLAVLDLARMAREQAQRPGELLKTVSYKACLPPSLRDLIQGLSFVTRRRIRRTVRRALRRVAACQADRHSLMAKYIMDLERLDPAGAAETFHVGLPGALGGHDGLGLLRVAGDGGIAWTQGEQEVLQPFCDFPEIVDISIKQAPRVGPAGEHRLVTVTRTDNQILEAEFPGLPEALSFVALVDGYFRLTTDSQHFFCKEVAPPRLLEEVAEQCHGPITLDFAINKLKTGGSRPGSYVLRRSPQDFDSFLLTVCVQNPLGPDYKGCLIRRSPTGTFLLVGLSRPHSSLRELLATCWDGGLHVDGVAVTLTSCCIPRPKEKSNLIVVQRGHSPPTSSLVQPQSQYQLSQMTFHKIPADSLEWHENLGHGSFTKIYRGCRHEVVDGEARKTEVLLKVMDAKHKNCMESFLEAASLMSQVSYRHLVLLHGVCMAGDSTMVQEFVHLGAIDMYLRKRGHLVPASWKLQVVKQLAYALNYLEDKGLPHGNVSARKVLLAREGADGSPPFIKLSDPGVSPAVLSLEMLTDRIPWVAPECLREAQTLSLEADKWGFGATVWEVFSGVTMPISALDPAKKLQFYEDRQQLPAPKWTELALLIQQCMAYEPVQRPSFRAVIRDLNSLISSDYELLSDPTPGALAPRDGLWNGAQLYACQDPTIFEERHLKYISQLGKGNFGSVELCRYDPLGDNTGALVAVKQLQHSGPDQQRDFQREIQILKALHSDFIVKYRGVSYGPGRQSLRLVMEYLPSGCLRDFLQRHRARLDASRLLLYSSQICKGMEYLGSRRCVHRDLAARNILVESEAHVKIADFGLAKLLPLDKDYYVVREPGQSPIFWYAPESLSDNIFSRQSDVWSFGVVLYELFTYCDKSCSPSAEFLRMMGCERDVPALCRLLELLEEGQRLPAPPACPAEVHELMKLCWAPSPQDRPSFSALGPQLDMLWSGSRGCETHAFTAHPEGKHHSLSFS

CYP3A4 [12] = molecular target: T4, CYP3A4 (Homo sapiens, UniProt P08684); experiment: Time dependent inhibition of CYP3A4 in human liver microsomes using midazolam as substrate assessed as 1'-OH midazolam metabolite formation at 50 uM preincubated for 30 mins in presence of NADPH followed by substrate addition and measured after 15 mins by HPLC-MS/MS analysis relative to control; assay type: ADME, Microsome; conditions: probe midazolam, time 45 min, read-out: TDI
T4 sequence (P08684 whole entry): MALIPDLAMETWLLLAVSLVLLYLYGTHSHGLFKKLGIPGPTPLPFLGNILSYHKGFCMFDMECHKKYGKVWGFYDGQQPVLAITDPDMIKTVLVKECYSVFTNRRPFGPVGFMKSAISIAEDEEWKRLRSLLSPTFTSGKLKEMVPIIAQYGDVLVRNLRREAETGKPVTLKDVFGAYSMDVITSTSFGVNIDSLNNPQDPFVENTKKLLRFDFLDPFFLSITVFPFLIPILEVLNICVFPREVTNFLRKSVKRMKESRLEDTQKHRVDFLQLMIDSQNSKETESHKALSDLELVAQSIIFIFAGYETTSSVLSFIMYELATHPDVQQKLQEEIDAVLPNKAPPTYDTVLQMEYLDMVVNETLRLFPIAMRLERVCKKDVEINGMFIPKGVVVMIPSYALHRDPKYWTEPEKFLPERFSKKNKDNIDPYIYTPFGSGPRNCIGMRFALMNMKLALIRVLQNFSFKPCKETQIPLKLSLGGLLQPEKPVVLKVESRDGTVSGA

CYP3A4 [13] = molecular target: T4, CYP3A4; experiment: Induction of CYP3A4 in human hepatocytes assessed as fold increase in mRNA level at 10 uM incubated for 24 hrs by RT-qPCR analysis relative to control; assay type: ADME, cell-based, Hepatocyte; conditions: read-out: FC
CYP3A4 [14] = molecular target: T4, CYP3A4; experiment: Induction of CYP3A4 in human hepatocytes assessed as maximum activation in mRNA level at 10 uM incubated for 24 hrs by RT-qPCR analysis relative to control; assay type: ADME, cell-based, Hepatocyte; conditions: read-out: max activation
[15] = Unbound clearance in rat blood at 1 mg/kg, iv or 1 mg/kg,po; assay type: ADME, organism-based; conditions: in vivo
[16] = Half life in rat at 1 mg/kg, iv or 1 mg/kg,po; assay type: ADME, organism-based; conditions: in vivo
[17] = Volume of distribution at steady state in rat at 1 mg/kg, iv or 1 mg/kg,po; assay type: ADME, organism-based; conditions: in vivo, read-out: Vdss
[18] = Oral bioavailability in rat at 1 mg/kg; assay type: ADME, organism-based; conditions: in vivo
[19] = Metabolic stability in dog hepatocytes assessed as intrinsic clearance for unbound fraction of drug; assay type: ADME, cell-based, Canis lupus familiaris, Hepatocyte
[20] = Metabolic stability in monkey hepatocytes assessed as intrinsic clearance for unbound fraction of drug; assay type: ADME, cell-based, Macaca mulatta, Hepatocyte; conditions: rhesus monkey
[21] = Unbound clearance in dog blood at 0.5 mg/kg, iv; assay type: ADME, organism-based, Canis lupus familiaris; conditions: in vivo
[22] = Half life in dog at 0.5 mg/kg, iv; assay type: ADME, organism-based, Canis lupus familiaris; conditions: in vivo
[23] = AUC (0 to infinity) in dog at 0.5 mg/kg,po; assay type: ADME, organism-based, Canis lupus familiaris; parameters: dose 0.5 mg/kg, route po; conditions: in vivo
[24] = Oral bioavailability in dog at 0.5 mg/kg; assay type: ADME, organism-based, Canis lupus familiaris; conditions: in vivo
[25] = Unbound clearance in cynomolgus monkey blood at 0.5 mg/kg, iv; assay type: ADME, organism-based, Macaca fascicularis; conditions: in vivo
[26] = Half life in cynomolgus monkey at 0.5 mg/kg, iv; assay type: ADME, organism-based, Macaca fascicularis; conditions: in vivo

Row | IC50 [1] | EC50 [2] | EC50 [3] | CL free [4] | solubility thermodynamic [5] | inhibition at 0.25 h, 50 µM (CYP3A4 [12]) | fold induction at 24 h, 10 µM (CYP3A4 [13]) | Emax at 24 h, 10 µM (CYP3A4 [14]) | SMILES | also measured
1 | 9 nM | 93 nM | 17700 nM | 85 mL/min/kg | – | – | – | – | CCS(=O)(=O)c1cccc(-c2cn(C)c3cnc(NC(C)=O)cc23)n1 | –
2 | 4 nM | 24 nM | 3400 nM | 132 mL/min/kg | 2.4 µM (≈ 0.896 µg/mL) | – | – | – | CC(=O)Nc1cc2c(-c3cccc(S(=O)(=O)N(C)C)n3)cn(C)c2cn1 | –
3 | – | – | – | 12.5 mL/min/kg | – | 43% | 13 | 49% | COc1cc(-c2cn(C3COC3)c3cnc(NC(C)=O)cc23)nc([C@]2(OC)CCOC2)c1 | –
4 | 30 nM | – | – | 80 mL/min/kg | 20 µM (≈ 7.33 µg/mL) | – | – | – | CO[C@@]1(c2cccc(-c3cn(C)c4cnc(NC(C)=O)cc34)n2)CCOC1 | –
5 | – | – | – | 33 mL/min/kg | – | – | – | – | CO[C@@]1(c2cc(OCC#N)cc(-c3cn(C)c4cnc(NC(C)=O)cc34)n2)CCOC1 | –
6 | – | – | > 20000 nM | 102 mL/min/kg | 190 µM (≈ 86.4 µg/mL) | 21% | 1.8 | 3% | CO[C@@]1(c2cc(O[C@@H](C)CCO)cc(-c3cn(C)c4cnc(NC(C)=O)cc34)n2)CCOC1 | EC50 [10]: > 20000 nM; EC50 [11]: > 20000 nM; CL free [15]: 102 mL/min/kg; half-life [16]: 0.5 h; Vd [17]: 2.5 L/kg; bioavailability [18]: 16%; CL free [19]: 30 mL/min/kg; CL free [20]: 107 mL/min/kg; CL free [21]: 41.7 mL/min/kg; half-life [22]: 3 h; AUC(0-inf) [23]: 300 ng·h/mL; bioavailability [24]: 71%; CL free [25]: 78.3 mL/min/kg; half-life [26]: 1.4 h
7 | – | 30 nM | – | 110 mL/min/kg | – | 6% | 4 | 42% | COCCOc1cc(-c2cn(C)c3cnc(NC(C)=O)cc23)nc([C@]2(OC)CCOC2)c1 | –
8 | 60 nM | 1500 nM | – | 80 mL/min/kg | 29 µM (≈ 10.6 µg/mL) | – | – | – | CO[C@]1(c2cccc(-c3cn(C)c4cnc(NC(C)=O)cc34)n2)CCOC1 | –
9 | – | – | – | 102 mL/min/kg | – | 53% | 6 | 64% | CO[C@@]1(c2cc(OC(F)F)cc(-c3cn(C)c4cnc(NC(C)=O)cc34)n2)CCOC1 | –

Second part, the molecule before the results:

Row | SMILES | IC50 [1] | EC50 [2] | EC50 [3] | CL free [4] | solubility thermodynamic [5] | inhibition at 0.25 h, 50 µM (CYP3A4 [12]) | fold induction at 24 h, 10 µM (CYP3A4 [13]) | Emax at 24 h, 10 µM (CYP3A4 [14]) | also measured
10 | CC(=O)Nc1cc2c(-c3cccc(S(=O)(=O)N(C)C)c3)cn(C)c2cn1 | 10 nM | 20 nM | 6800 nM | 140 mL/min/kg | 3.2 µM (≈ 1.19 µg/mL) | – | – | – | –
11 | CC(=O)Nc1cc2c(-c3cccc(S(=O)(=O)C4COC4)n3)cn(C)c2cn1 | 35 nM | 194 nM | 14000 nM | – | – | – | – | – | –
12 | CC(=O)Nc1cc2c(-c3cccc(S(=O)(=O)N(C)C)c3)c[nH]c2cn1 | 30 nM | 120 nM | 19700 nM | 113 mL/min/kg | 1.2 µM (≈ 0.43 µg/mL) | – | – | – | IC50 [6]: 6000 nM; IC50 [7]: 40000 nM; Ratio IC50 [8]: > 200; Ratio IC50 [9]: > 200; EC50 [10]: > 19000 nM; EC50 [11]: > 19000 nM
13 | CN(C)S(=O)(=O)c1cccc(-c2c[nH]c3cnc(NC(=O)C4CC4)cc23)c1 | 480 nM | 540 nM | 36300 nM | 765 mL/min/kg | < 0.8 µM | – | – | – | –
14 | CO[C@@]1(c2cc(C#N)cc(-c3cn([C@@H]4CC4(F)F)c4cnc(NC(C)=O)cc34)n2)CCOC1 | – | – | – | 68.3 mL/min/kg | – | 20% | 13 | 40% | –
15 | CO[C@@]1(c2cc(C(F)F)cc(-c3cn(C)c4cnc(NC(C)=O)cc34)n2)CCOC1 | – | 40 nM | – | 31.7 mL/min/kg | – | 49% | 7.7 | 23% | –
16 | CO[C@@]1(c2cccc(-c3cn(C)c4cnc(NC(N)=O)cc34)n2)CCOC1 | 5 nM | 60 nM | – | 41.7 mL/min/kg | 16 µM (≈ 5.88 µg/mL) | – | – | – | –
17 | CO[C@@]1(c2cc(OCC[C@@H](C)O)cc(-c3cn(C)c4cnc(NC(C)=O)cc34)n2)CCOC1 | – | 77 nM | > 20000 nM | – | 105 µM (≈ 47.7 µg/mL) | 8% | 2.6 | 6% | EC50 [10]: > 20000 nM; EC50 [11]: > 20000 nM; CL free [15]: 567 mL/min/kg; half-life [16]: 1.1 h; Vd [17]: 19 L/kg; bioavailability [18]: 26%
